Key:
[1] = biological target: human D3 dopamine receptor (Homo sapiens (Human), UniProt P35462); test: Radioligand binding (125I-IABN competition), D3; settings: for Ki: 125I-IABN competition, HEK cell membranes expressing human D3; for D2/D3 (D3 selectivity ratio, D2 Ki/D3 Ki): calculated D2 Ki/D3 Ki
Experimental: (§1) The affinities of the target compounds were determined using radioligand binding experiments. […] Competition curves were modeled for a single site. Data from competition dose-response curves were analyzed using Tablecurve program (Jandel). IC50 values were converted to equilibrium dissociation constants (Ki values) using the Cheng and Prusoff correction.

[2] = biological target: human D2-long dopamine receptor (Homo sapiens (Human), UniProt P14416); test: Radioligand binding (125I-IABN competition), D2; settings: HEK cell membranes expressing human D2-long
Experimental: as §1

human D2-long dopamine receptor, sequence (P14416 whole entry): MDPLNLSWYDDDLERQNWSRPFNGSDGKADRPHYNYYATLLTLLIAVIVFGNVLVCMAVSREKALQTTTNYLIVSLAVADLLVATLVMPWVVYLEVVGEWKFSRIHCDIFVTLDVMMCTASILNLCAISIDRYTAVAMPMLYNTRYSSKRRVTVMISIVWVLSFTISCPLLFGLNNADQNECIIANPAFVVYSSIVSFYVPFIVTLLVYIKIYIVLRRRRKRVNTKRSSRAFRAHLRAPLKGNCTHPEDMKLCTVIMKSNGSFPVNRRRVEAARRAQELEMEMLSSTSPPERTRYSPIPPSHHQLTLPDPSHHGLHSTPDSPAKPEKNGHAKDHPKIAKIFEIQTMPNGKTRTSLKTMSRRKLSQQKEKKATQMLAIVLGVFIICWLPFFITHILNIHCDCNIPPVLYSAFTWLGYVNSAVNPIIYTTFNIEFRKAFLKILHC
human D3 dopamine receptor, sequence (P35462 whole entry): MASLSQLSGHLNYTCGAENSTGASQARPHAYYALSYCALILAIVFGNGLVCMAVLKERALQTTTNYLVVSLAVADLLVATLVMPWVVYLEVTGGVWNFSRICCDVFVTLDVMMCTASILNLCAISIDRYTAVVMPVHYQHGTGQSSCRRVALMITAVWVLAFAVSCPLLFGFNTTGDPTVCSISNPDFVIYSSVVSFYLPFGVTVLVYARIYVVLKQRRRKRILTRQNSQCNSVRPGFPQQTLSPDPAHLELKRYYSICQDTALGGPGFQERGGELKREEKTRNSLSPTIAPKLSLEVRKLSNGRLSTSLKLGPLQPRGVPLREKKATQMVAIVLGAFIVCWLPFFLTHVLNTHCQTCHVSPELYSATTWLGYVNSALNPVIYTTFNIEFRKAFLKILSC

| SMILES | Ki [1] | D2/D3 (D3 selectivity ratio, D2 Ki/D3 Ki) [1] | Ki [2] |
| --- | --- | --- | --- |
| CN1CCN(C(=O)NCCCCN2CCN(c3cc(C(F)(F)F)nc(C(C)(C)C)n3)CC2)CC1 [Compound 64, N-(4-(4-(2-(tert-Butyl)-6-(trifluoromethyl)pyrimidin-4-yl)piperazin-1-yl)butyl)-4-methylpiperazine-1-carboxamide] | 9.8 ± 2 nM | 17 | 167 ± 25.5 nM |
| CCN1CCN(C(=O)NCCCCN2CCN(c3cc(C(F)(F)F)nc(C(C)(C)C)n3)CC2)CC1 [Compound 65, N-(4-(4-(2-(tert-Butyl)-6-(trifluoromethyl)pyrimidin-4-yl)piperazin-1-yl)butyl)-4-ethylpiperazine-1-carboxamide] | 8.6 ± 1.1 nM | 15 | 128 ± 25.8 nM |
| CC(C)N1CCN(C(=O)NCCCCN2CCN(c3cc(C(F)(F)F)nc(C(C)(C)C)n3)CC2)CC1 [Compound 66, N-(4-(4-(2-(tert-Butyl)-6-(trifluoromethyl)pyrimidin-4-yl)piperazin-1-yl)butyl)-4-isopropylpiperazine-1-carboxamide] | 9.6 ± 2.2 nM | 13 | 125 ± 25.3 nM |
| CC(C)(C)c1nc(N2CCN(CCCCNC(=O)N3CCN(C4CC4)CC3Cc3ccccc3)CC2)cc(C(F)(F)F)n1 (stereo not drawn) [Compound 67, 2-Benzyl-N-(4-(4-(2-(tert-butyl)-6-(trifluoromethyl)pyrimidin-4-yl)piperazin-1-yl)butyl)-4-cyclopropylpiperazine-1-carboxamide] | 73.8 ± 17.5 nM | 8 | 626 ± 143 nM |
| CC(C)(C)c1nc(N2CCN(CCCCNC(=O)N3CCN(CC4CC4)CC3)CC2)cc(C(F)(F)F)n1 [Compound 68, N-(4-(4-(2-(tert-Butyl)-6-(trifluoromethyl)pyrimidin-4-yl)piperazin-1-yl)butyl)-4-(cyclopropylmethyl)piperazine-1-carboxamide] | 13.8 ± 2.4 nM | 13 | 184 ± 46.6 nM |
| CC(C)(C)c1nc(N2CCN(CCCCNC(=O)N3CCN(C4CCCCC4)CC3)CC2)cc(C(F)(F)F)n1 [Compound 69, N-(4-(4-(2-(tert-Butyl)-6-(trifluoromethyl)pyrimidin-4-yl)piperazin-1-yl)butyl)-4-cyclohexylpiperazine-1-carboxamide] | 29.8 ± 3.8 nM | 7 | 215 ± 54.1 nM |
| CC(C)(C)c1nc(N2CCN(CCCCNC(=O)N3CCCc4ccccc43)CC2)cc(C(F)(F)F)n1 [Compound 70, N-(4-(4-(2-(tert-Butyl)-6-(trifluoromethyl)pyrimidin-4-yl)piperazin-1-yl)butyl)-3,4-dihydroquinoline-1(2H)-carboxamide] | 33.5 ± 8 nM | 6 | 215 ± 36.3 nM |
| CC(C)(C)c1nc(N2CCN(CCCCNC(=O)N3CCc4ccccc43)CC2)cc(C(F)(F)F)n1 [Compound 71, N-(4-(4-(2-(tert-Butyl)-6-(trifluoromethyl)pyrimidin-4-yl)piperazin-1-yl)butyl)indoline-1-carboxamide] | 27.4 ± 3.8 nM | 10 | 281 ± 46.5 nM |
| CC(C)(C)c1nc(N2CCN(CCCCNC(=O)N3CCN(Cc4cccc(C#N)c4)CC3)CC2)cc(C(F)(F)F)n1 [Compound 72, N-(4-(4-(2-(tert-Butyl)-6-(trifluoromethyl)pyrimidin-4-yl)piperazin-1-yl)butyl)-4-(3-cyanobenzyl)piperazine-1-carboxamide] | 84.2 ± 20.3 nM | 10 | 820 ± 178 nM |
| CC(C)(C)c1nc(N2CCN(CCCCNC(=O)N3CCN(C(c4ccccc4)c4ccc(Cl)cc4)CC3)CC2)cc(C(F)(F)F)n1 (stereo not drawn) [Compound 73, N-(4-(4-(2-(tert-Butyl)-6-(trifluoromethyl)pyrimidin-4-yl)piperazin-1-yl)butyl)-4-((4-chlorophenyl)(phenyl)methyl)piperazine-1-carboxamide] | 130 ± 13 nM | 8 | 990 ± 192 nM |

Source: US9598387B2 (Southern Research Institute, priority 2012, dated 2017)
